Assay type in all cases: in vivo
In one series the test system is Apera spica-venti. The series can be described thus: Test Example 4: herbicidal effect by soil treatment (symbol L). The method in brief:
(§1)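 Seeds were sown in sterilized diluvial soil, covered with about 1.5 cm of soil, and the soil surface was sprayed with a water-diluted emulsion of the compound at a predetermined rate. Plants grew in a greenhouse at 25° C. to 30° C.; effects were scored visually 3 weeks after application.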

A further series deals with Monochoria vaginalis. The series can be described thus: Test Example 1: herbicidal activity, application before weed generation in submerged conditions (symbol C). Conditions: application herbicide amount 320 g/ha. The method in brief: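 Flooded alluvial soil (4 cm water) was mixed-sown with the three weed species, and 2.5-leaf rice seedlings were transplanted. On sowing day, a water-diluted emulsion at a predetermined rate was applied to the water surface. After 3 weeks in a 25–30 °C greenhouse, effect was scored 0–5.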

The test system of series [1] is Stellaria media. In words: Test Example 5: herbicidal effect by foliage application, plastic box (symbol P). Conditions: 320 g/ha, 3 weeks after application. The method in brief: (§2)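 Seeds were sown in sterilized diluvial soil, covered with about 1.5 cm of soil and grown 14 days in a greenhouse at 25° C. to 30° C. An emulsifiable formulation diluted in water to a set rate was sprayed over foliage, and injury was scored 3 weeks later.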

For a further series, the system named is Leptochloa chinensis. The series can be described thus: Test Example 3: herbicidal effect by foliage application, Wagner pot (symbol D). Conditions: application herbicide amount 320 g/ha. The method in brief: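 Weeds and rice were sown in alluvial soil under 0.1–0.5 cm of standing water and grown for 14 days in a 25–30 °C greenhouse. An emulsion of the compound, diluted in water to a set dose, was sprayed evenly onto the foliage. Effect was scored against fixed criteria 3 weeks after treatment.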

A further series has as its system Amaranthus retroflexus. In words: Test Example 5: herbicidal effect by foliage application, plastic box (symbol N). Conditions: 320 g/ha, 3 weeks after application. The method in brief: as §2
For series [2], the system named is Echinochloa crus-galli var. crus-galli. The series can be described thus: Test Example 5: herbicidal effect by foliage application, plastic box (symbol H). Conditions: 320 g/ha, 3 weeks after application. The method in brief: as §2
The test system of a further series is Galium spurium. In words: Test Example 4: herbicidal effect by soil treatment (symbol Q). The method in brief: as §1
Series [3] deals with Chenopodium album. The series can be described thus: Test Example 5: herbicidal effect by foliage application, plastic box (symbol O). Conditions: 320 g/ha, 3 weeks after application. The method in brief: as §2
A further series concerns corn. In words: Test Example 5: effect on crop by foliage application, plastic box (symbol c). Conditions: 320 g/ha, 3 weeks after application. The method in brief:
(§3)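 Seeds were sown in spots in sterilized diluvial soil held in a plastic box 21 cm × 13 cm × 7 cm deep, covered with about 1.5 cm of soil, and grown in a greenhouse at 25° C. to 30° C.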

The next series has as its system Veronica persica. The series can be described thus: Test Example 4: herbicidal effect by soil treatment (symbol R). The method in brief: as §1
Another series deals with Setaria viridis. In words: Test Example 4: herbicidal effect by soil treatment (symbol G). The method in brief: as §1
Another series relates to Lolium multiflorum Lam. In words: Test Example 5: herbicidal effect by foliage application, plastic box (symbol K). Conditions: 320 g/ha, 3 weeks after application. The method in brief: as §2
In another series the test system is rapeseed. The series can be described thus: Test Example 5: effect on crop by foliage application, plastic box (symbol g). Conditions: 320 g/ha, 3 weeks after application. The method in brief: as §3
In another series the test system is transplanted rice plant. In words: Test Example 1: effect on crop, application before weed generation in submerged conditions (symbol a). Conditions: application herbicide amount 320 g/ha. The method in brief: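 Alluvial soil pots flooded to 4 cm water, sown with Echinochloa oryzacola, Scirpus juncoides and Monochoria vaginalis, then transplanted with 2.5 leaf stage rice seedlings; pre-emergence application. Greenhouse 25° C. to 30° C.; scored 0–5 by herbicidal ratio 3 weeks after application.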

For a further series, the system named is Abutilon theophrasti. The series can be described thus: Test Example 5: herbicidal effect by foliage application, plastic box (symbol M). Conditions: 320 g/ha, 3 weeks after application. The method in brief: as §2
For series [4], the system named is Stellaria media. In words: Test Example 4: herbicidal effect by soil treatment (symbol P). The method in brief:
as §1

For series [5], the system named is Chenopodium album. In words: Test Example 4: herbicidal effect by soil treatment (symbol O). The method in brief: as §1
The test system of a further series is Alopecurus myosuroides. The series can be described thus: Test Example 4: herbicidal effect by soil treatment (symbol J). The method in brief:
as §1

A further series concerns Avena fatua. In words: Test Example 4: herbicidal effect by soil treatment (symbol I). The method in brief:
as §1

The mark [6] stands for this setting: application herbicide amount 320 g/ha.

Structures are written as SMILES.

Regarding `CON=C(CC1CC(O)=C(c2c(C)cc(C)cc2C)C1=O)C(C)C` (centres unmarked) [1-048], in the series with Apera spica-venti (setting [6]), the “L (Apera spica-venti) herbicidal effect grade” value is recorded as 5 (Herbicidal ratio of 90% or more (almost completely withered)). For the same compound, the “Herbicidal effect grade, C: Monochoria vaginalis” value (“Herbicidal effect grade, C” below) in the series with Monochoria vaginalis was 1 (Herbicidal ratio of 5% or higher and lower than 20%). For the same compound, the “P: Stellaria media, herbicidal effect grade” value in the series with Stellaria media [1] was 3 (Herbicidal ratio of 40% or higher and lower than 70%). Moreover, in the series with Leptochloa chinensis, the “herbicidal effect on D (Leptochloa chinensis), grade 0-5” value is 4 (Herbicidal ratio of 70% or higher and lower than 90%). Further, the “N: Amaranthus retroflexus, herbicidal effect grade” value with Amaranthus retroflexus was 1 (Herbicidal ratio of 5% or higher and lower than 20%). Besides, the “H: Echinochloa crus-galli var. crus-galli, herbicidal effect grade” value in series [2] is 5 (Herbicidal ratio of 90% or more (almost completely withered)). Also, the “Q (Galium spurium) herbicidal effect grade” value in the series on Galium spurium (setting [6]) is on record as 0 (Herbicidal ratio of 5% or lower (almost no effect)). Also, the “O: Chenopodium album, herbicidal effect grade” value with Chenopodium album [3] was 3 (Herbicidal ratio of 40% or higher and lower than 70%). Further, in the series on corn, the “c: corn, effect on crop grade” value was 4 (Herbicidal ratio of 70% or higher and lower than 90%). Besides, the “R (Veronica persica) herbicidal effect grade” value with Veronica persica (setting [6]) is 0 (Herbicidal ratio of 5% or lower (almost no effect)). In the series on Setaria viridis (setting [6]), the “G (Setaria viridis) herbicidal effect grade” value is 5 (Herbicidal ratio of 90% or more (almost completely withered)). In addition, the “K: Lolium multiflorum Lam., herbicidal effect grade” value in the series on Lolium multiflorum Lam. is on record as 5 (Herbicidal ratio of 90% or more (almost completely withered)). The “g: rapeseed, effect on crop grade” value with rapeseed is 3 (Herbicidal ratio of 40% or higher and lower than 70%). In addition, in the series with transplanted rice plant, the “Effect grade on crop, a: transplanted rice plant” value (from here on “Effect grade on crop”) is recorded as 5 (Herbicidal ratio of 90% or more (almost completely withered)). Further, the “M: Abutilon theophrasti, herbicidal effect grade” value in the series on Abutilon theophrasti is 3 (Herbicidal ratio of 40% or higher and lower than 70%). Besides, the “P (Stellaria media) herbicidal effect grade” value with Stellaria media [4] (setting [6]) is listed as 0 (Herbicidal ratio of 5% or lower (almost no effect)). In addition, the “O (Chenopodium album) herbicidal effect grade” value in the series on Chenopodium album [5] (setting [6]) was 0 (Herbicidal ratio of 5% or lower (almost no effect)). Besides, the “J (Alopecurus myosuroides) herbicidal effect grade” value in the series on Alopecurus myosuroides (setting [6]) is recorded as 5 (Herbicidal ratio of 90% or more (almost completely withered)). Besides, the “I (Avena fatua) herbicidal effect grade” value in the series on Avena fatua (setting [6]) was 1 (Herbicidal ratio of 5% or higher and lower than 20%).

`CON=C(CC1CC(O)=C(c2c(C)cc(-n3cc(Cl)cn3)cc2C)C1=O)C(C)C` (centres unmarked) [9-004]: in the series on Apera spica-venti (setting [6]), the “Herbicidal effect grade, L: Apera spica-venti” value is 5 (Herbicidal ratio of 90% or more (almost completely withered)). Also, the “Herbicidal effect grade, C” value in the series with Monochoria vaginalis is 0 (Herbicidal ratio of 5% or lower (almost no effect)). Moreover, in the series with Stellaria media [1], the “P: Stellaria media, herbicidal effect grade” value is 2 (Herbicidal ratio of 20% or higher and lower than 40%). In addition, in the series with Leptochloa chinensis (Table 24), the “D (Leptochloa chinensis) herbicidal effect grade” value was 5 (Herbicidal ratio of 90% or more (almost completely withered)). In addition, in series [2], the “H: Echinochloa crus-galli var. crus-galli, herbicidal effect grade” value is reported as 5 (Herbicidal ratio of 90% or more (almost completely withered)). Further, the “Herbicidal effect grade, Q: Galium spurium” value with Galium spurium (setting [6]) was 0 (Herbicidal ratio of 5% or lower (almost no effect)). In addition, the “O: Chenopodium album, herbicidal effect grade” value in the series with Chenopodium album [3] was 1 (Herbicidal ratio of 5% or higher and lower than 20%). Besides, the “c: corn, effect on crop grade” value in the series with corn is 5 (Herbicidal ratio of 90% or more (almost completely withered)). The “Herbicidal effect grade, R: Veronica persica” value with Veronica persica (setting [6]) is reported as 0 (Herbicidal ratio of 5% or lower (almost no effect)). Moreover, the “Herbicidal effect grade, G: Setaria viridis” value in the series with Setaria viridis (setting [6]) was 5 (Herbicidal ratio of 90% or more (almost completely withered)). In the series with Lolium multiflorum Lam., the “K: Lolium multiflorum Lam., herbicidal effect grade” value is 5 (Herbicidal ratio of 90% or more (almost completely withered)). In addition, in the series with rapeseed, the “g: rapeseed, effect on crop grade” value is 3 (Herbicidal ratio of 40% or higher and lower than 70%). In the series on transplanted rice plant, the “Effect grade on crop” value is 5 (Herbicidal ratio of 90% or more (almost completely withered)). Further, the “M: Abutilon theophrasti, herbicidal effect grade” value in the series on Abutilon theophrasti is on record as 0 (Herbicidal ratio of 5% or lower (almost no effect)). In addition, in the series with Stellaria media [4] (setting [6]), the “Herbicidal effect grade, P: Stellaria media” value is reported as 0 (Herbicidal ratio of 5% or lower (almost no effect)). The “Herbicidal effect grade, O: Chenopodium album” value in the series with Chenopodium album [5] (setting [6]) is reported as 0 (Herbicidal ratio of 5% or lower (almost no effect)). In addition, the “Herbicidal effect grade, J: Alopecurus myosuroides” value in the series with Alopecurus myosuroides (setting [6]) was 5 (Herbicidal ratio of 90% or more (almost completely withered)). The “Herbicidal effect grade, I: Avena fatua” value in the series on Avena fatua (setting [6]) was 2 (Herbicidal ratio of 20% or higher and lower than 40%).

Regarding `COCC(=O)OC1=C(c2c(C)cc(C)cc2C)C(=O)C(CC(C)=NOC)C1` (centres unmarked) [1-093], in the series with Apera spica-venti (320 g/ha), the “L: Apera spica-venti, herbicidal effect grade” value is 5 (Herbicidal ratio of 90% or more (almost completely withered)). Besides, in the series on Monochoria vaginalis, the “Herbicidal effect grade, C” value was 2 (Herbicidal ratio of 20% or higher and lower than 40%). For the same compound, the “P: Stellaria media, herbicidal effect (criteria 0-5)” value in the series with Stellaria media [1] is 2 (Herbicidal ratio of 20% or higher and lower than 40%). Also, the “herbicidal effect on D (Leptochloa chinensis), grade 0-5” value in the series with Leptochloa chinensis is on record as 5 (Herbicidal ratio of 90% or more (almost completely withered)). Moreover, the “N: Amaranthus retroflexus, herbicidal effect (criteria 0-5)” value in the series on Amaranthus retroflexus is 4 (Herbicidal ratio of 70% or higher and lower than 90%). Moreover, the “H: Echinochloa crus-galli var. crus-galli, herbicidal effect (criteria 0-5)” value in series [2] was 5 (Herbicidal ratio of 90% or more (almost completely withered)). Besides, the “Q: Galium spurium, herbicidal effect grade” value in the series on Galium spurium (320 g/ha) is 0 (Herbicidal ratio of 5% or lower (almost no effect)). In addition, the “O: Chenopodium album, herbicidal effect (criteria 0-5)” value in the series on Chenopodium album [3] was 0 (Herbicidal ratio of 5% or lower (almost no effect)). Also, the “c: corn, effect on crop (criteria 0-5)” value in the series on corn is 5 (Herbicidal ratio of 90% or more (almost completely withered)). Also, the “R: Veronica persica, herbicidal effect grade” value in the series on Veronica persica (320 g/ha) is on record as 0 (Herbicidal ratio of 5% or lower (almost no effect)). Besides, the “G: Setaria viridis, herbicidal effect grade” value in the series on Setaria viridis (320 g/ha) is reported as 5 (Herbicidal ratio of 90% or more (almost completely withered)). For the same compound, in the series with Lolium multiflorum Lam., the “K: Lolium multiflorum Lam., herbicidal effect (criteria 0-5)” value was 5 (Herbicidal ratio of 90% or more (almost completely withered)). The “g: rapeseed, effect on crop (criteria 0-5)” value in the series with rapeseed is 4 (Herbicidal ratio of 70% or higher and lower than 90%). Besides, the “Effect grade on crop” value in the series on transplanted rice plant is 5 (Herbicidal ratio of 90% or more (almost completely withered)). Besides, the “M: Abutilon theophrasti, herbicidal effect (criteria 0-5)” value with Abutilon theophrasti was 4 (Herbicidal ratio of 70% or higher and lower than 90%). Moreover, the “P: Stellaria media, herbicidal effect grade” value in the series with Stellaria media [4] (320 g/ha) was 0 (Herbicidal ratio of 5% or lower (almost no effect)). Besides, the “O: Chenopodium album, herbicidal effect grade” value with Chenopodium album [5] (320 g/ha) is on record as 0 (Herbicidal ratio of 5% or lower (almost no effect)). Besides, the “J: Alopecurus myosuroides, herbicidal effect grade” value with Alopecurus myosuroides (320 g/ha) is 5 (Herbicidal ratio of 90% or more (almost completely withered)). Further, the “I: Avena fatua, herbicidal effect grade” value with Avena fatua (320 g/ha) was 3 (Herbicidal ratio of 40% or higher and lower than 70%).

The values above are taken from US11000033B2, “Ketone or oxime compound, and herbicide” (NISSAN CHEMICAL CORPORATION, priority 2014, dated 2021).
